PubChem BioAssay AID2060897 (Molecular Pharmacology Branch, DTP, NCI, 2025)

Tested on: 966289-007-R4-J1-PDC complex spheroid viability
Experiment: Anticancer human tumor 966289-007-R4-J1-PDC patient-derived pancreatic adenocarcinoma cell line growth inhibition [RAS]
Details: for IC50: curve of first compound; for viability, T/C: stronger effect = lower value
Method in brief: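 Multi-cell-type spheroids: tumor cells plus HUVEC endothelial cells and mesenchymal stem cells. RAS-pathway inhibitors were combined with targeted agents, each dosed in half-log steps down from clinical Cmax, or from 10 microM when Cmax was unknown.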
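Further: spheroids exposed to agents for one week before readout.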
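Wherever viability, T/C is given: percent viability relative to DMSO vehicle control wells as 100%.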

CCN1CCN(Cc2ccc(Nc3ncc(F)c(-c4cc(F)c5nc(C)n(C(C)C)c5c4)n3)nc2)CC1 + C=CC(=O)N1CCN(c2nc(OCC3CCCN3C)nc3c(F)c(-c4nc(N)cc(C)c4C(F)(F)F)c(Cl)cc23)C(C)C1
IC50 (second compound 0.00316 µM): > 1000 nM
IC50 (second compound 0.01 µM): > 1000 nM
IC50 (second compound 0.0316 µM): > 1000 nM
IC50 (second compound 0.1 µM): > 1000 nM
IC50 (second compound 0.316 µM): > 1000 nM
IC50 (second compound 1 µM): > 1000 nM
viability, T/C (second compound 0.00316 µM, first compound 0.00316 µM): 109%
viability, T/C (second compound 0.00316 µM, first compound 0.01 µM): 110%
viability, T/C (second compound 0.00316 µM, first compound 0.0316 µM): 101%
viability, T/C (second compound 0.00316 µM, first compound 0.1 µM): 95.8%
viability, T/C (second compound 0.00316 µM, first compound 0.316 µM): 83.5%
viability, T/C (second compound 0.00316 µM, first compound 1 µM): 76.2%
viability, T/C (second compound 0.01 µM, first compound 0.00316 µM): 96%
viability, T/C (second compound 0.01 µM, first compound 0.01 µM): 110%
viability, T/C (second compound 0.01 µM, first compound 0.0316 µM): 120%
viability, T/C (second compound 0.01 µM, first compound 0.1 µM): 107%
viability, T/C (second compound 0.01 µM, first compound 0.316 µM): 99.1%
viability, T/C (second compound 0.01 µM, first compound 1 µM): 72.6%
viability, T/C (second compound 0.0316 µM, first compound 0.00316 µM): 116%
viability, T/C (second compound 0.0316 µM, first compound 0.01 µM): 126%
viability, T/C (second compound 0.0316 µM, first compound 0.0316 µM): 106%
viability, T/C (second compound 0.0316 µM, first compound 0.1 µM): 113%
viability, T/C (second compound 0.0316 µM, first compound 0.316 µM): 84.8%
viability, T/C (second compound 0.0316 µM, first compound 1 µM): 72.8%
viability, T/C (second compound 0.1 µM, first compound 0.00316 µM): 107%
viability, T/C (second compound 0.1 µM, first compound 0.01 µM): 121%
viability, T/C (second compound 0.1 µM, first compound 0.0316 µM): 121%
viability, T/C (second compound 0.1 µM, first compound 0.1 µM): 109%
viability, T/C (second compound 0.1 µM, first compound 0.316 µM): 78.8%
viability, T/C (second compound 0.1 µM, first compound 1 µM): 78.7%
viability, T/C (second compound 0.316 µM, first compound 0.00316 µM): 106%
viability, T/C (second compound 0.316 µM, first compound 0.01 µM): 103%
viability, T/C (second compound 0.316 µM, first compound 0.0316 µM): 120%
viability, T/C (second compound 0.316 µM, first compound 0.1 µM): 105%
viability, T/C (second compound 0.316 µM, first compound 0.316 µM): 89.4%
viability, T/C (second compound 0.316 µM, first compound 1 µM): 73.4%
viability, T/C (second compound 1 µM, first compound 0.00316 µM): 98.5%
viability, T/C (second compound 1 µM, first compound 0.01 µM): 98.6%
viability, T/C (second compound 1 µM, first compound 0.0316 µM): 120%
viability, T/C (second compound 1 µM, first compound 0.1 µM): 102%
viability, T/C (second compound 1 µM, first compound 0.316 µM): 79%
viability, T/C (second compound 1 µM, first compound 1 µM): 77.2%
